Measured values published in PMC12216525, “Characterization of glutamine synthetase involved in the fecundity of Rhopalosiphum padi” (Scientific Reports, 2025).

Test system: RpGS1
Conditions: read-out: RpGS1; 0.5-15 mM sodium glutamate; ATP, hydroxylamine, Mg2+ in solution B pH 7.4; 37 C; called purified in the discussion, methods describe protein released by ultrasonication

A Km of 580 µM was found for `N[C@@H](CCC(=O)O)C(=O)O` [sodium glutamate] in this work.
